Experimental data taken from patent US7951814B2, “Quinazolinedione derivatives as TRPA1 modulators” (Glenmark Pharmaceuticals, S.A., priority 2008, dated 2011).

Biological target: T1, Human TRPA1 expressing CHO cells (Homo sapiens, UniProt O75762)
T1 construct: expressed in transfected cells; host or cells: CHO cells (under G-418 selection)
Experiment: 45Calcium uptake assay: inhibition of AITC induced cellular uptake of radioactive calcium
Type: cell-based
Details: AITC 30 μM, human TRPA1 CHO cells; for inhibition at 1 µM: 1.0 μM test compound, read-out: Percentage inhibition at 1.0 μM; for inhibition at 10 µM: 10.0 μM test compound, read-out: Percentage inhibition at 10.0 μM; for IC50: read-out: IC50 value (range)
Description: The illustrative examples of the present invention are screened for TRPA1 activity according to a modified procedure described in (a) Tóth, A. et al. Life Sciences (2003), 73, 487-498. ([…]. et al. Proc. Natl. Acad. Sci. U.S.A., (2007), 104, 13525-13530. The screening of the compounds can be carried out by other methods and procedures known to persons skilled in the art. Screening for TRPA1 Antagonist Using the ^45Calcium Uptake Assay The inhibition of TRPA1 receptor activation was measured as inhibition of allyl isothiocyanate (AITC) induced cellular uptake of radioactive calcium. […] Final concentration of DMSO in the reaction was 0.5% (v/v). […] Cells were seeded 24 h prior to the assay in 96 well plates so as to get 50,000 cells per well on the day of experiment. Cells were treated with test compounds for 10 min followed by addition of AITC at a final concentration of 30 μM and 5 μCi/ml ^45Ca^+2 for 3 min. […] Radioactivity in the lysate was measured in Packard Top count after addition of liquid scintillant. Concentration response curves were plotted as a % of maximal response obtained in the absence of test antagonist. IC50 value was calculated from concentration response curve by nonlinear regression analysis using GraphPad PRISM software.

T1 sequence (O75762 whole entry): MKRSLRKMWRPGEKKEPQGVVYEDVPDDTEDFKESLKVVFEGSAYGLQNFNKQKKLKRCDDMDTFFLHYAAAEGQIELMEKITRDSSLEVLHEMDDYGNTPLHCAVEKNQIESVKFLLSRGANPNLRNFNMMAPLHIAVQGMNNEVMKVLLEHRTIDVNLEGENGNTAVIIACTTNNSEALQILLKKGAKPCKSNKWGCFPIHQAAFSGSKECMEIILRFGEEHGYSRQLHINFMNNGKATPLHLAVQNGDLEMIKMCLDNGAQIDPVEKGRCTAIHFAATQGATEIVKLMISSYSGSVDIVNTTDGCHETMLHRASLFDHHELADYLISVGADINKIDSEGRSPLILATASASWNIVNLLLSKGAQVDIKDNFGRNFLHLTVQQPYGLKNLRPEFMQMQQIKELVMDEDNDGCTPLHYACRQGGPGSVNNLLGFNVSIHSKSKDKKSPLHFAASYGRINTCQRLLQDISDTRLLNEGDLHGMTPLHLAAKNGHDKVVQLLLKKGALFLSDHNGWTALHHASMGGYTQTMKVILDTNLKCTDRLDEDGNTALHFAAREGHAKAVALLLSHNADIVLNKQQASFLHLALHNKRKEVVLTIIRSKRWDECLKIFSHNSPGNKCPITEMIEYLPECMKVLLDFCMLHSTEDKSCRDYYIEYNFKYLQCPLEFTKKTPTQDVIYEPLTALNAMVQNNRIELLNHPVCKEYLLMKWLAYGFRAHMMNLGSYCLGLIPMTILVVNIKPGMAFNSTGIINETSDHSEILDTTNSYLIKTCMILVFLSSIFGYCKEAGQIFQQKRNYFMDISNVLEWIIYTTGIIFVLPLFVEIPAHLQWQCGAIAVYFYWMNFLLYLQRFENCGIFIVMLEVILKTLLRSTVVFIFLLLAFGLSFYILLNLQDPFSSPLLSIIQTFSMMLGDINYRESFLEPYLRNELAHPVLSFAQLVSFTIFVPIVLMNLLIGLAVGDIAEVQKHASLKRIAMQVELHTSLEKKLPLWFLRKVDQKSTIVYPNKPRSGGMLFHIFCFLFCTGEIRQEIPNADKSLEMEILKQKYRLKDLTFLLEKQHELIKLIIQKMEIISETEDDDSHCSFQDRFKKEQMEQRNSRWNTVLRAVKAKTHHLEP

Row | SMILES | inhibition at 1 µM [%] | inhibition at 10 µM [%] | IC50 [µM]
1 | Cn1c(=O)c2c(CC(=O)Nc3nc(-c4ccc(F)cc4F)cs3)cccc2n(C)c1=O [Example 31, N1-[4-(2,4-Difluorophenyl)-1,3-thiazol-2-yl]-2-(1,3-dimethyl-2,4-dioxo-1,2,3,4-tetrahydro-5-quinazolinyl)acetamide] | 90.1 | 97.9 | < 0.05
2 | Cn1c(=O)c2c(CC(=O)Nc3nc(-c4ccc(F)cc4C(F)(F)F)cs3)cccc2n(C)c1=O [Example 39, N1-[4-(4-Fluoro-2-trifluoromethylphenyl)-1,3-thiazol-2-yl]-2-(1,3-dimethyl-2,4-dioxo-1,2,3,4-tetrahydro-5-quinazolinyl)acetamide] | 51.6 | 90.3 | 
3 | Cn1c(=O)c2c(CC(=O)Nc3nc(-c4ccc(OCC5CC5)c(F)c4)cs3)cccc2n(C)c1=O [Example 60, N1-[4-(4-Cyclopropylmethoxy-3-fluorophenyl)-1,3-thiazol-2yl]-2-(1,3-dimethyl-2,4-dioxo-1,2,3,4-tetrahydro-5-quinazolinyl)acetamide] | 1.31 | 41.3 | 
4 | COc1ccc(-c2csc(NC(=O)Cc3cccc4c3c(=O)n(C)c(=O)n4C)n2)cc1F [Example 43] | 5.71 | 9.15 | 
5 | Cc1cc(-c2csc(NC(=O)Cc3cccc4c3c(=O)n(C)c(=O)n4C)n2)ccc1Cl [Example 58, N1-[4-(4-Chloro-3-methylphenyl)-1,3-thiazol-2yl]-2-(1,3-dimethyl-2,4-dioxo-1,2,3,4-tetrahydro-5-quinazolinyl)acetamide] | 94.2 | 96.7 | > 0.1
6 | Cn1c(=O)c2c(CC(=O)Nc3nc(-c4ccc(Cl)c(Cl)c4)cs3)cccc2n(C)c1=O [Example 47, N1-[4-(3,4-Dichlorophenyl)-1,3-thiazol-2yl]-2-(1,3-dimethyl-2,4-dioxo-1,2,3,4-tetrahydro-5-quinazolinyl)acetamide] | 98.4 | 99.2 | 0.0501 to 0.1
7 | Cn1c(=O)c2c(CC(=O)Nc3nc(-c4cc(C(F)(F)F)ccc4F)cs3)cccc2n(C)c1=O [Example 40, N1-[4-(2-Fluoro-5-trifluoromethylphenyl)-1,3-thiazol-2-yl]-2-(1,3-dimethyl-2,4-dioxo-1,2,3,4-tetrahydro-5-quinazolinyl)acetamide] | 82.7 | 98.7 | > 0.1
8 | Cc1ccc(-c2csc(NC(=O)Cc3cccc4c3c(=O)n(C)c(=O)n4C)n2)cc1 [Example 24, N1-[4-(4-Methylphenyl)-1,3-thiazol-2yl]-2-(1,3-dimethyl-2,4-dioxo-1,2,3,4-tetrahydro-5-quinazolinyl)acetamide] | 83.9 | 96.8 | 0.0501 to 0.1
9 | Cn1c(=O)c2c(CC(=O)Nc3nc(-c4ccc(Br)cc4)cs3)cccc2n(C)c1=O [Example 12] | 98.7 | 99.2 | 0.0501 to 0.1
10 | CCc1ccc(-c2csc(NC(=O)Cc3cccc4c3c(=O)n(C)c(=O)n4C)n2)cc1 [Example 23] | 96.2 | 96.9 | 0.0501 to 0.1
11 | Cn1c(=O)c2c(CC(=O)Nc3nc(-c4ccc(F)cc4Cl)cs3)cccc2n(C)c1=O [Example 54] | 74.1 | 99.8 | < 0.05

Continued, values first:

Row | inhibition at 1 µM [%] | inhibition at 10 µM [%] | IC50 [µM] | SMILES
12 | 95.1 | 100 | < 0.05 | Cn1c(=O)c2c(CC(=O)Nc3nc(-c4ccc(C(F)(F)F)cc4F)cs3)cccc2n(C)c1=O [Example 36, N1-[4-(2-Fluoro-4-trifluoromethylphenyl)-1,3-thiazol-2-yl]-2-(1,3-dimethyl-2,4-1,2,3,4-tetrahydro-5-quinazolinyl)acetamide]
13 | 82.1 | 95.5 | > 0.1 | Cn1c(=O)c2c(CC(=O)Nc3nc(-c4ccc(Cl)cc4Cl)cs3)cccc2n(C)c1=O [Example 45, N1-[4-(2,4-Dichlorophenyl)-1,3-thiazol-2yl]-2-(1,3-dimethyl-2,4-dioxo-1,2,3,4-tetrahydro-5-quinazolinyl)acetamide]
14 | 83.6 | 98.9 | < 0.05 | COc1c(F)cc(-c2csc(NC(=O)Cc3cccc4c3c(=O)n(C)c(=O)n4C)n2)cc1F [Example 71, N1-[4-(3,5-Difluoro-4-methoxyphenyl)-1,3-thiazol-2-yl]-2-(1,3-dimethyl-2,4-dioxo-1,2,3,4-tetrahydroquinazolin-5-yl)acetamide]
15 | 96.8 | 100 | < 0.05 | Cn1c(=O)c2c(CC(=O)Nc3nc(-c4ccc(OCC(F)(F)F)c(F)c4)cs3)cccc2n(C)c1=O [Example 59, N1-{4-[3-fluoro-4-(2,2,2-trifluoroethoxy)phenyl]-1,3-thiazol-2yl}-2-(1,3-dimethyl-2,4-dioxo-1,2,3,4-tetrahydro-5-quinazolinyl)acetamide]
16 | 95.6 | 99.7 | < 0.05 | Cn1c(=O)c2c(CC(=O)Nc3nc(-c4cccc(OC(F)(F)F)c4)cs3)cccc2n(C)c1=O [Example 16, N1-[4-(3-Trifluoromethoxyphenyl)-1,3-thiazol-2-yl]-2-(1,3-dimethyl-2,4-dioxo-1,2,3,4-tetrahydro-5-quinazolinyl)acetamide]
17 | 97.8 | 99.7 | < 0.05 | Cn1c(=O)c2c(CC(=O)Nc3nc(-c4ccc(OC(F)F)c(Cl)c4)cs3)cccc2n(C)c1=O [Example 57, N1-{4-[3-Chloro-4-(difluoromethoxy)phenyl]-1,3-thiazol-2-yl}-2-(1,3-dimethyl-2,4-dioxo-1,2,3,4-tetrahydro-5-quinazolinyl)acetamide]
18 | 100 | 99.9 | < 0.05 | Cn1c(=O)c2c(CC(=O)Nc3nc(-c4cc(F)c(OCC(F)(F)F)c(F)c4)cs3)cccc2n(C)c1=O [Example 70, N1-{4-[3,5-Difluoro-4-(2,2,2-trifluoroethoxy)phenyl]-1,3-thiazol-2-yl}-2-(1,3-dimethyl-2,4-dioxo-1,2,3,4-tetrahydro-5-quinazolinyl)acetamide]
19 | 5.6 | 30.5 |  | Cn1c(=O)c2c(CC(=O)Nc3nc4ccccc4s3)cccc2n(C)c1=O [Example 75]
20 | 79.2 | 94.7 | 0.0501 to 0.1 | Cn1c(=O)c2c(CC(=O)Nc3nc(-c4ccc(I)cc4)cs3)cccc2n(C)c1=O [Example 13, N1-[4-(4-Iodophenyl)-1,3-thiazol-2yl]-2-(1,3-dimethyl-2,4-dioxo-1,2,3,4-tetrahydro-5-quinazolinyl)acetamide]
21 | 49.1 | 95.5 |  | Cc1cc2nc(NC(=O)Cc3cccc4c3c(=O)n(C)c(=O)n4C)sc2cc1C [Example 77, N1-(5,6-Dimethylbenzo[d][1,3]thiazol-2-yl)-2-(1,3-dimethyl-2,4-dioxo-1,2,3,4-tetrahydro-5-quinazolinyl)acetamide]
22 | 95.4 | 96.5 | < 0.05 | Cn1c(=O)c2c(CC(=O)Nc3nc(-c4cc(F)c(OCC5CC5)c(F)c4)cs3)cccc2n(C)c1=O [Example 72, N1-[4-(4-Cyclopropylmethoxy-3,5-difluorophenyl)-1,3-thiazol-2-yl]-2-(1,3-dimethyl-2,4-dioxo-1,2,3,4-tetrahydroquinazolin-5-yl)acetamide]
23 | 97.5 | 99.3 | > 0.1 | Cn1c(=O)c2c(CC(=O)Nc3nc(-c4ccc(Cl)cc4F)cs3)cccc2n(C)c1=O [Example 51, N1-[4-(4-Chloro-2-fluorophenyl)-1,3-thiazol-2-yl]-2-(1,3-dimethyl-2,4-dioxo-1,2,3,4-tetrahydro-5-quinazolinyl)acetamide]
24 | 100 | 100 | < 0.05 | Cn1c(=O)c2c(CC(=O)Nc3nc(-c4cc(F)c(C(F)(F)F)c(F)c4)cs3)cccc2n(C)c1=O [Example 66, N1-{4-[3,5-Difluoro-4-trifluoromethylphenyl]-1,3-thiazol-2-yl}-2-(1,3-dimethyl-2,4-dioxo-1,2,3,4-tetrahydro-5-quinazolinyl)acetamide]
25 | 85 | 99.8 | > 0.1 | Cn1c(=O)c2c(CC(=O)Nc3nc(-c4cc(C(F)(F)F)ccc4Cl)cs3)cccc2n(C)c1=O [Example 56, N1-[4-(2-Chloro-5-trifuoromethylphenyl)-1,3-thiazol-2-yl]-2-(1,3-dimethyl-2,4-dioxo-1,2,3,4-tetrahydro-5-quinazolinyl)propanamide]
26 | 33.1 | 88.6 |  | Cn1c(=O)c2c(CC(=O)Nc3nc(-c4c(F)cccc4Cl)cs3)cccc2n(C)c1=O [Example 53, N1-[4-(2-Chloro-6-fluorophenyl)-1,3-thiazol-2-yl]-2-(1,3-dimethyl-2,4-dioxo-1,2,3,4-tetrahydro-5-quinazolinyl)acetamide]
27 | 59.8 | 90.3 | > 0.1 | Cn1c(=O)c2c(CC(=O)Nc3nc4c(s3)CCc3cc(Cl)ccc3-4)cccc2n(C)c1=O [Example 78]
